Test results as given in patent publication US7423115B2, “ARTS C-terminus fragments and mimetics thereof” (SimeTRA Pharm Ltd, priority 2005, dated 2008).

What was measured:
[1] = tested on: cells; experiment: Induction of apoptosis by the ARTS C terminus; type: cell-based
Method: Cells were incubated for 24 hours with no peptide (negative control) or with 100 micromolar (mcM) peptides corresponding to residues 1-9 (“pep1”), 10-18 (“pep2”), or 19-27 (“pep3”) of the ARTS C-terminus Apoptotic cells were detected using DAPI staining or TUNEL. For TUNEL assays, the cells were fixed and permeabilized. Apoptosis levels were determined using the TUNEL In situ™ cell death detection TMR kit (Roche) according to the manufacturer's protocol. All samples were coded, and experiments were performed in a blind manner.

[2] = biological target: T1, Bir3 domain of XIAP protein (Homo sapiens, UniProt P98170); experiment: Co-immunoprecipitation of myc-tagged ARTS C-terminus with GST-Bir3 on glutathione beads in transfected, staurosporine-treated COS-7 cells; type: binding; conditions: COS-7 cells co-transfected, 1.25 μM staurosporine for 1 hr, Western blot with anti-ARTS C-terminus antibody
T1 construct: vectors expressing either the Bir3 domain of XIAP protein fused to GST; expressed in transfected cells; host or cells: COS-7
Method: COS-7 cells were transfected with 2.5 μg each of vectors expressing either the Bir3 domain of XIAP protein fused to GST or the GST alone, together with the myc-tagged ARTS C-terminus or myc-ARTS alone. After 40 hr, cells were exposed to 1.25 μM staurosporine for 1 hr and then washed in phosphate-buffered saline (PBS), scraped off the dish, pelleted, resuspended in 20 μL lysis buffer (150 mM NaCl, 50 mM Tris-HCl (pH 8), 1% NP-40, 0.5% deoxycholate acid, protease inhibitors (Mini Complete®, Roche Applied Science, Indianapolis, Ind.), and incubated on ice for 20 min.
Lysis buffer was added to lysate containing 400 mcg total protein, to a final volume of 1 ml. 100 mcL of 20% glutathione beads was added, and the mixture was rotated at 7.5° C. overnight. Beads were centrifuged at 400×g for 2 min and washed 3 times in 1 ml RIPA buffer (0.1% SDS, 1% NP-40, 0.5% deoxycholate acid, 150 mM NaCl, 50 mM Tris-HCl (pH 8), protease inhibitors). The pellet was boiled for 5 min in an additional 25 mcL RIPA buffer and 10 mcL 4× loading buffer, then the sample was electrophoresed on an SDS poly-acrylamide gel, transferred to PVDF membrane, and subjected to Western blot using monoclonal antibody directed against the ARTS C-terminus. Blots were developed with the West Pico kit (Pierce Biotechnology, Rockford, Ill.).

T1 sequence (P98170 265-330 limits assumed): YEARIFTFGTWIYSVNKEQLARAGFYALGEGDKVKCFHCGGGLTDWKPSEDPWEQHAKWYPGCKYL

YGPSLRLLAPPGAVKGTGQEHQGQGCH [ARTS C terminus]
Induction of apoptosis [1]: sufficient for induction of apoptosis | Interaction with GST-Bir3 domain of XIAP (co-precipitation with glutathione beads) [2]: co-precipitated
